The source of these data is patent publication US7858790B2, “Modulators of muscarinic receptors” (Vertex Pharmaceuticals Incorporated, priority 2006, dated 2010).

The target of assay [1] is T1, M1 muscarinic receptor (Homo sapiens, UniProt P11229).
T1 construct: expressed in transfected cells; host or cells: CHO (M1-CHO recombinant cell line)
T1 sequence (P11229 1-460): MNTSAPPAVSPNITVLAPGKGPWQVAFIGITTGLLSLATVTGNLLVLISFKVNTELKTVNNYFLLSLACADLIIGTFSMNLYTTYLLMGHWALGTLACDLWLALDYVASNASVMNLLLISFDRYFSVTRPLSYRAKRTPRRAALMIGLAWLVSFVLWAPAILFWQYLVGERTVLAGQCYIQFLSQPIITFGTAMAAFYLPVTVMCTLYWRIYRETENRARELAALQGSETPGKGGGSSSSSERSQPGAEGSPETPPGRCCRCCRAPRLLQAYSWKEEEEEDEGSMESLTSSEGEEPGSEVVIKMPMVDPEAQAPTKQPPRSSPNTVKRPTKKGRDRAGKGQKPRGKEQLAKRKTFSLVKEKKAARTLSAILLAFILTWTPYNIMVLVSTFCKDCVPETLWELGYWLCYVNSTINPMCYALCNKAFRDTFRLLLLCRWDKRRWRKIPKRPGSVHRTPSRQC
In words: Functional mobilization of intracellular calcium (FLIPR) in CHO cells expressing M1 muscarinic receptor. Type of assay: cell-based. The conditions noted are these: for M1 Activity: CHO cells expressing M1, calcium mobilization; for Emax: CHO, 100% efficacy is the maximum response obtained with the Carbachol control. On the procedure:
(§1) VI. Assays for Detecting and Measuring Inhibition Properties of Compounds Functional Mobilization of Intracellular Calcium to Determine Muscarinic Receptor Activity:
(§2) CHO cells expressing muscarinic receptors (M1 to M5) are grown as monolayers in tissue culture flasks at 37° C. in a humidified atmosphere containing 5% CO2 and passaged every 3-5 days. The growth media is Dulbecco's modified eagles medium (DMEM, Gibco Cat# 12430-054), containing 25 mM Hepes and supplemented with Fetal Bovine Serum (Hyclone, cat# SH30071.03), 0.1 mM of MEM non-essential amino acids (GIBCO, Cat# 11140-050), 1 mM MEM Sodium Pyruvate (GIBCO Cat# 11360-070) and 100 units/ml of Penicillin G and 100 μg/ml of Streptomycin (GIBCO Cat# 15140-122). The recombinant muscarinic receptor cell lines are grown under antibiotic pressure with media containing 25 μg/ml zeocin and 500 μg/ml G418 (M1-CHO), 4 μg/ml puromycin, 50 μg/ml zeocin and 2.5 μg/ml blasticidin (M2 and M4-CHO) or 50 μg/ml zeocin and 4 μg/ml puromycin (M3 and M5-CHO).
(§3) Cells are harvested at 80-90% confluence using Versene (GIBCO Cat# 15040-066), collected by centrifugation and seeded 18-24 hours prior to running the calcium assay at a density of 5,000-10,000 cells/well in […], clear-bottomed 384-well plates (BD Biocoat, poly-D-lysine, Cat#356663). The day of the experiment, the cells are washed with a plate washer (Bioteck Instruments, ELX 405) using bath buffer (140-mM NaCl, 4.5-mM KCl, 2-mM CaCl2, 1-mM MgCl2, 10-mM Hepes-Na, 10-mM Glucose, pH 7.4, with NaOH) containing 1 mM Probenecid. Next, the calcium dye Fluo-3 (25 μl/well of Fluo-3 μM at 4 μM, Molecular Probes F-1241, in Bath 1 buffer containing 1 mM Probenecid) is added to the 25 μl of Bath 1 remaining in each well after the plate wash and the dye is loaded at 37° C. in the tissue culture incubator for 60-90 min. The fluorescent dye is removed using the plate washer with Bath 1 containing 1 mM Probenecid, leaving 25 μl/well of this solution after the wash. Alternatively, cells can be loaded with the calcium indicator from Molecular Devices (Calcium 3 Assay Reagents, Cat # R7181) adding 5 μl of a 5× solution dye in Bath 1 containing 1 mM Probenecid (10 ml per dye flask cat# R7182 to generate a solution 20×) to 20 μl of the same buffer. After loading for 60 min, the experiment can be run without having to remove the dye.
(§4) Compounds are prepared at a 2× fold concentration in a 96-well plate (round bottom, Costar Corning cat# 3656), by reconstituting the pre-spotted compounds in bath 1 containing 1 mM probenecid. The final concentration DMSO is 0.5%, and the amount of DMSO is normalized across the assay plate. To determine an agonist action of the compounds on muscarinic receptors, the reconstituted compounds are added (25 μl compound/well) to the cell assay plate (containing 25 μl/well) using the multi-channel robotic system of the FLIPR 3 Instrument (Molecular Devices, Sunnyvale, Calif.). To determine a functional inhibitory-action of the compounds on muscarinic receptors, the reconstituted compounds are added (25 μl compound/well) to the assay plate and pre-incubated for 15 min prior to adding 25 μl of Carbachol at 3× the EC80 for each muscarinic subtype. Alternatively, the compounds can be co-applied simultaneously with the agonist. In both assay modes, the fluorescence is recorded for 60 sec (excitation wavelength is […] and emission wavelength 540 nm) using the FLIPR 3 instrument.
(§5) The potency, efficacy and selectivity of the muscarinic compounds were evaluated by screening the compound activity across the whole family (M1 to M5 cells). Compounds were also screened for activity on other proteins such as other GPCRs and ion channels to determine selectivity on M4 receptors.
(§6) Examples of activities and efficacies of the muscarinic compounds of formulae (I, Ia, and Ib) on modulating M1 and M4 receptors are shown below in Table 8. […]

The target in assay [2] is T2, M4 muscarinic receptor (Homo sapiens, UniProt P08173).
T2 construct: expressed in transfected cells; host or cells: CHO (M4-CHO recombinant cell line)
T2 sequence (P08173 1-479): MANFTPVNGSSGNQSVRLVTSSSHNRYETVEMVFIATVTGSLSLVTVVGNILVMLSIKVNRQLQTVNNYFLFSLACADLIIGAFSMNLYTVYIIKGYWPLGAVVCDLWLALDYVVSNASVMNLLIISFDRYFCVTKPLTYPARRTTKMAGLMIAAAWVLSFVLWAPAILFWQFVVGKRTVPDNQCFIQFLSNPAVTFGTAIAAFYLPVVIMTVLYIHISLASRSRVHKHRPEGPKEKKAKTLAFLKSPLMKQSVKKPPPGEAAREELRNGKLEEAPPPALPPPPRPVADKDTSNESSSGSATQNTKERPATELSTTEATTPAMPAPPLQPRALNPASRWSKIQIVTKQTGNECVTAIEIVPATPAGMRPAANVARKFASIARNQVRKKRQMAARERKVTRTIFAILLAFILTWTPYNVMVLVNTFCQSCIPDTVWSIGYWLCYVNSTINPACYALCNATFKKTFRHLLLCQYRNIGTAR
In words: Functional mobilization of intracellular calcium (FLIPR) in CHO cells expressing M4 muscarinic receptor. It counts as cell-based. The conditions noted are these: for M4 Activity: CHO cells expressing M4, calcium mobilization; for Emax: CHO, 100% efficacy is the maximum response obtained with the Carbachol control. Here is the method: as §1, §2, §3, §4, §5, §6

Structures are written as SMILES.

Consider `CC(C)NC(=O)C1=CCC2(CCN(C3C[C@@H]4CC[C@@H]3C4)CC2)c2ccccc21` (some centres unmarked) [compound 36], for which, in assay [1], the “M1 Activity” value is given as “+ (activity was measured to be greater than 10.0 μM)” and the Emax is less than 25%. Besides, in assay [2], the “M4 Activity” value was “+ (activity was measured to be greater than 10.0 μM)” and the Emax is less than 25%.
Turning to `CCC(CC)NC(=O)C1=CC2(CCN(CCC(C)(C)C)CC2)c2ccccc21` [compound 39], in assay [1], the “M1 Activity” value is recorded as “+ (activity was measured to be greater than 10.0 μM)” and the maximum response (Emax) was less than 25%. Further, in assay [2], the “M4 Activity” value is listed as “++ (activity was measured to be from 2.0 μM to 10.0 μM)” and the maximum response (Emax) is 25 to 100%.
`CCC(CC)NC(=O)C1=CC2(CCN(CCC(C)C)CC2)c2ccccc21` [compound 40]: in assay [1], the “M1 Activity” value is given as “+ (activity was measured to be greater than 10.0 μM)” and the maximal response (Emax) is less than 25%. Also, in assay [2], the “M4 Activity” value was “++ (activity was measured to be from 2.0 μM to 10.0 μM)” and the maximal response (Emax) fell in the range of 25 to 100%.
`CNC(=O)C1=CC2(CCN(C3CCCCCC3)CC2)c2ccccc21` [compound 41]: in assay [1], the “M1 Activity” value is listed as “++ (activity was measured to be from 2.0 μM to 10.0 μM)” and the Emax lay within 25 to 100%. In assay [2], the “M4 Activity” value is given as “+++ (activity was measured to be less than 2.0 μM)” and the maximum response (Emax) lay within 25 to 100%.
As for `CCCOC(=O)N1CCC(N2CCC3(C=C(C(=O)NC(CC)CC)c4ccccc43)CC2)CC1` [compound 42], in assay [1], the “M1 Activity” value is “+ (activity was measured to be greater than 10.0 μM)” and the maximal response (Emax) was less than 25%. Besides, in assay [2], the “M4 Activity” value was “+ (activity was measured to be greater than 10.0 μM)” and the Emax was less than 25%.
`CCOC(=O)N1CCC(N2CCC3(CC=C(C(=O)N4CCCC4)c4ccccc43)CC2)CC1` [compound 43]: in assay [1], the “M1 Activity” value was “+++ (activity was measured to be less than 2.0 μM)” and the maximal effect (Emax) is 25 to 100%. Also, in assay [2], the “M4 Activity” value is reported as “+++ (activity was measured to be less than 2.0 μM)” and the Emax lay in the range of 25 to 100%.
Regarding `CN(C)C(=O)C1=CC2(CCN(C3CCCCCC3)CC2)c2ccccc21` [compound 44], in assay [1], the “M1 Activity” value is on record as “+ (activity was measured to be greater than 10.0 μM)” and the Emax was in the range of 25 to 100%. In assay [2], the “M4 Activity” value was “+++ (activity was measured to be less than 2.0 μM)” and the Emax lay within 25 to 100%.
As for `CCC(CC)NC(=O)C1=CC2(CCN(C3CCN(C(=O)C4CC4)CC3)CC2)c2ccccc21` [compound 45], in assay [1], the “M1 Activity” value is given as “+ (activity was measured to be greater than 10.0 μM)” and the Emax is less than 25%. Also, in assay [2], the “M4 Activity” value is listed as “+ (activity was measured to be greater than 10.0 μM)” and the maximal effect (Emax) was 25 to 100%.
Consider `CN(C)C(=O)C1=CCC2(CCN(CCC(C)(C)C)CC2)c2ccccc21` [compound 46], for which, in assay [1], the “M1 Activity” value is reported as “++ (activity was measured to be from 2.0 μM to 10.0 μM)” and the Emax was 25 to 100%. Besides, in assay [2], the “M4 Activity” value is given as “+++ (activity was measured to be less than 2.0 μM)” and the maximum response (Emax) was in the range of 25 to 100%.
For `O=C(NC1CCC1)C1=CC2(CCN(CC3CC4C=CC3C4)CC2)c2ccccc21` (centres unmarked) [compound 47], in assay [1], the “M1 Activity” value is “++ (activity was measured to be from 2.0 μM to 10.0 μM)” and the maximal effect (Emax) lay within 25 to 100%. In assay [2], the “M4 Activity” value was “+++ (activity was measured to be less than 2.0 μM)” and the Emax is 25 to 100%.
As to `CNC(=O)C1=CC2(CCN(CCCCSC)CC2)c2ccccc21` [compound 49], in assay [1], the “M1 Activity” value is on record as “+ (activity was measured to be greater than 10.0 μM)” and the Emax was less than 25%. For the same compound, in assay [2], the “M4 Activity” value was “+ (activity was measured to be greater than 10.0 μM)” and the maximal effect (Emax) was less than 25%.
In the case of `CCCC(C)NC(=O)C1=CC2(CCN(CC3CC4C=CC3C4)CC2)c2ccccc21` (centres unmarked) [compound 50], in assay [1], the “M1 Activity” value was “+ (activity was measured to be greater than 10.0 μM)” and the Emax was less than 25%. Besides, in assay [2], the “M4 Activity” value is “+++ (activity was measured to be less than 2.0 μM)” and the Emax is 25 to 100%.
For `CC(C)(C)CCN1CCC2(CC=C(C#N)c3ccccc32)CC1` [compound 51, 1′-(3,3-dimethylbutyl)-2H-spiro[naphthalene-1,4′-piperidine]-4-carbonitrile], in that order: “+++ (activity was measured to be less than 2.0 μM)”, 25 to 100%, “+++ (activity was measured to be less than 2.0 μM)” and 25 to 100%.
The like results for `CC(C)NC(=O)C1=CCC2(CCN(CCC(C)(C)C)CC2)c2ccccc21` [compound 52] were, in that order, “+ (activity was measured to be greater than 10.0 μM)”, less than 25%, “+ (activity was measured to be greater than 10.0 μM)” and less than 25%.
For `CCC(CC)NC(=O)C1=CC2(CCN(CCC3CCOCC3)CC2)c2ccccc21` [compound 53], in assay [1], the “M1 Activity” value is reported as “+ (activity was measured to be greater than 10.0 μM)” and the maximum response (Emax) was less than 25%. In addition, in assay [2], the “M4 Activity” value was “+++ (activity was measured to be less than 2.0 μM)” and the maximal effect (Emax) lay within 25 to 100%.
The like results for `O=C(O)C1=CC2(CCN(CC3CCCCC3)CC2)c2ccccc21` [compound 54] were, in that order, “+ (activity was measured to be greater than 10.0 μM)”, less than 25%, “+ (activity was measured to be greater than 10.0 μM)” and less than 25%.
As for `CCC(CC)NC(=O)C1=CC2(CCN(CCCCSC)CC2)c2ccccc21` [compound 55], in assay [1], the “M1 Activity” value is reported as “+ (activity was measured to be greater than 10.0 μM)” and the Emax is less than 25%. For the same compound, in assay [2], the “M4 Activity” value is on record as “+ (activity was measured to be greater than 10.0 μM)” and the maximal response (Emax) was less than 25%.
